In patent US6770261B2, “Magnetic resonance imaging agents for the detection of physiological agents” (Research Corporation Technologies, priority 1995, dated 2004):
Read-outs that look alike come from different tables or passages of the source. Values belong to the compound of their own block, whether it stands above or below them.

Tests used:
[1] = Description: FIG. 16 depicts the relaxivity of the CalGad complex as a function of calcium ion concentration.
The effect of Ca2^+ on the relaxivity of the complex

[2] = for T1: 0.4 mM
Experimental: The effect of pH on the relaxivity of the complex
The T1 of the Gd3^+-complex (0.4 mM in the buffer containing 100 mM KC1, 10 mM MOPS, 2 mM K2H2EGTA or 2 mM K2CaEGTA) was measured under different pH.

[3] = for T1: 0.4 mM, 1 mM K2H2EGTA
Experimental: The effect of Mg^2+ on the relaxivity of the complex
The T1 of the Gd^3+-complex (0.4 mM in the buffer containing 132 mM KC1, 10 mM MOPS, 1 mM K2H2EGTA, pH 7.20) was measured.

[4] = literature value used for comparison (Lauffer); cited from earlier work
[5] = Relaxivity R by NMR spectroscopy at 500 MHz; format: physicochemical; design: unit not given here
[6] = biological target: T1, β-galactosidase (Escherichia coli, UniProt P00722)
T1 sequence (P00722 2-1024): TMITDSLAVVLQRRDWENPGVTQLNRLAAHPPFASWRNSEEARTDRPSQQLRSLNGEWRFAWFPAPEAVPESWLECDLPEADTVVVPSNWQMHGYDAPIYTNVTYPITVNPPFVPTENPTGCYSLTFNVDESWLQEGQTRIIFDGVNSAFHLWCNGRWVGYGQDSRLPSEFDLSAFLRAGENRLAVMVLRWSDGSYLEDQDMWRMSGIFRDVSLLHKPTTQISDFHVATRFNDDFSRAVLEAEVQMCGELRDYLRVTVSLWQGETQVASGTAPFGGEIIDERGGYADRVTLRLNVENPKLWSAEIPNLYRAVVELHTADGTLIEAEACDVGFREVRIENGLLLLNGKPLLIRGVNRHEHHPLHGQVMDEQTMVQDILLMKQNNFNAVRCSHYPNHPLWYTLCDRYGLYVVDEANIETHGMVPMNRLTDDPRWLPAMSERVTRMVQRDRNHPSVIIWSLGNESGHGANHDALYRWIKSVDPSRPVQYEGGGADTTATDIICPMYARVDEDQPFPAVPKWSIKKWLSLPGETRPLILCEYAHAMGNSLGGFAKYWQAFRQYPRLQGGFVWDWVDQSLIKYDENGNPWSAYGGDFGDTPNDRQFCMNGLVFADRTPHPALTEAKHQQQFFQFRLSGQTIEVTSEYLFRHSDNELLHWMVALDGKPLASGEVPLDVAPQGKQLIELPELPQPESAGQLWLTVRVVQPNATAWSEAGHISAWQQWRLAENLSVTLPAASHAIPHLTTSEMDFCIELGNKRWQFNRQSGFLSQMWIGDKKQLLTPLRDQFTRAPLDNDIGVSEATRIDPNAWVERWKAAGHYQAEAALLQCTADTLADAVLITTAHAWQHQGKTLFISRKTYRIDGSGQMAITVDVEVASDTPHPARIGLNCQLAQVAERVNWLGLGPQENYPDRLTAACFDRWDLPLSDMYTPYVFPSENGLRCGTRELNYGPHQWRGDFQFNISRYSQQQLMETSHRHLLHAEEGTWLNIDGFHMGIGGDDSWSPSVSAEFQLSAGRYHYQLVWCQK
Source text: Characterization: The ability of β-galactosidase to remove the galactopyranosal blocking group from GadGal was examined by HPLC. The cleavage reaction was monitored using the distinct retention times of the complex and the complex without the galactopyranose residue.

[7] = biological target: T1, β-galactosidase; conditions: for increase in signal (enhancement) in the presence of β-galactosidase: upon exposure to β-galactosidase
Experimental: FIG. 9 depicts the change in T1 observed upon the β-galactosidase catalyzed cleavage of the galactopyranose residue (n=3). The first Column of each pair (1,3,5) represents the T1 of the galactose-DOTA complex and β-galactosidase mixture immediately after addition. The second column represents the T1 of the solution after a period of time in the presence of β-galactosidase. Each column is reported as a ratio to a control containing only the complex. Column 1 and 2: 2.0 mM Gd complex plus 1.7 uM β-galactosidase phosphate buffer (25 mM) pH 7.3. Column 3 and 4: 2.0 mM Gd plus 5.1 uM β-galactosidase phosphate buffer (25 mM) pH 7.3. Column 5 and 6: 2 mM Gd complex plus 5.1 uM heat inactivated β-galactosidase (10 minutes at 80 degrees) phosphate buffer (25 mM) pH 7.3. […] A minimal concentration of enzyme was used in these experiments to reduce potential effects of any contrast agent-enzyme interactions. T1 were carried out using a Bruker AMX 500 spectrometer at 26 degrees using a standard inversion-recovery sequence. The solution was placed in a 40 ul round bottomed NMR tube insert (Wilmad glass) and inserted into a tube containing d3-chloroform. A two dimensional data file was collected containing 16 different inversion delays with 8 scans each. The raw nmr data was processed (Felix, BIOSYM/Molecular Simulations, San Diego, Calif.) and the peak heights were fitted to an exponential rise to a max to obtain T1.
The effect of the enzymatic cleavage of the galactopyranose on the T1 of the complex was assessed using NMR spectroscopy.
The effect of the enzymatic cleavage of the galactopyranose unit from EGadMe and CarboxyMe on relaxation time T1 was determined by NMR spectroscopy at 500 MHz and 24° C. Various aqueous solutions of 0.5 mM EGadMe and CarboxyMe, respectively, were prepared, containing either: (a) no enzyme; (b) heat inactivated 5 μM β-galactosidase that was treated at 80° C. for 10 min; (c) 5 μM β-galactosidase where T1 was measured immediately after mixing; or (d) 5 μM β-galactosidase that was reacted with the complex for 3.5 days at 37° C.

- relaxivity R ([1]; in the absence of Ca^2+): 3.03 mM⁻¹ s⁻¹
- relaxivity R ([1]; in the presence of Ca^2+): 5.53 mM⁻¹ s⁻¹
- T1 ([2]; 2 mM K2CaEGTA, pH 6.80): 390 ms
- T1 ([2]; 2 mM K2CaEGTA, pH 7.00): 393 ms
- T1 ([2]; 2 mM K2CaEGTA, pH 7.20): 394 ms
- T1 ([2]; 2 mM K2CaEGTA, pH 7.40): 397 ms
- T1 ([2]; 2 mM K2H2EGTA, pH 6.80): 600 ms
- T1 ([2]; 2 mM K2H2EGTA, pH 7.00): 605 ms
- T1 ([2]; 2 mM K2H2EGTA, pH 7.20): 604 ms
- T1 ([2]; 2 mM K2H2EGTA, pH 7.40): 608 ms
- effect of changing pH on the relaxivity ([2]; pH 6.80 to 7.40, in the presence or absence of Ca^2+): minimum effects
- T1 ([3]; pH 7.20, Mg^2+ 0 mM): 607 ms
- T1 ([3]; pH 7.20, Mg^2+ 1 mM): 602 ms
- T1 ([3]; pH 7.20, Mg^2+ 2 mM): 601 ms
- T1 ([3]; pH 7.20, Mg^2+ 5 mM): 609 ms
- T1 ([3]; pH 7.20, Mg^2+ 10 mM): 607 ms
- T1 ([3]; pH 7.20, Mg^2+ 20 mM): 610 ms
- effect of changing Mg^2+ concentration on the relaxivity ([3]; Mg^2+ 0 to 20 mM): minimum effects
Compound: O=C([O-])CN1CCN(CCCOc2cccc(OCCOc3cccc(OCCCN4CCN(CC(=O)[O-])CCN(CC(=O)[O-])CCN(CC(=O)[O-])CC4)c3N(CC(=O)O)CC(=O)O)c2N(CC(=O)O)CC(=O)O)CCN(CC(=O)[O-])CCN(CC(=O)[O-])CC1.[Gd+3].[Gd+3] [CalGad, Gd^3+-BAPTA-DO3A2]

Compound: O=C([O-])CN1CCN(CC(=O)[O-])CCN(CC(=O)O)CCN(CC(=O)[O-])CC1.[Gd+3] [Gd-DOTA]
- q (number of coordinating water molecules) [4]: 1.2

Compound: Do3a-hydroxyethyl-beta-galactose Gadolinium complex [GadGal]
- relaxivity R [5]: 1800
- cleavage of galactopyranose (HPLC traces) ([6]; incubated with β-galactosidase for 7 days, phosphate buffer pH 7.3): greater than 95%
- enzymatic processing of the complex (HPLC) ([6]; native vs heat-inactivated β-galactosidase): enzymatic processing of the complex by native but not heat-treated enzyme
- difference between measured T1 values in the presence and absence of β-galactosidase ([7]; 2.0 mM Gd complex, 1.7 or 5.1 uM β-galactosidase, pH 7.3, 500 MHz): 20%
- change of solution T1 with heat inactivated enzyme ([7]; control, heat inactivated β-galactosidase): no decrease
- increase in signal (enhancement) in the presence of β-galactosidase ([7]; listed as Example 1 compound): roughly 20%
- increase in signal (enhancement) in the presence of β-galactosidase ([7]; listed as galactose-DOTA structure of Example 1): ~20%
